# Measured values from PubChem BioAssay AID256 (DTP/NCI, 2004).
# Several values for one entry are separate records, joined by “and”; a condition that tells them apart may be missing. Equal values may be shown once. Toxic doses and inconclusive results are not listed.
# System: CD2F1 mice, L1210 leukemia ip, survival T/C
# Assay: NCI In Vivo Anticancer Drug Screen. Data for tumor model L1210 Leukemia (intraperitoneal) in CD2F1 (CDF1) mice
# Settings: higher = longer survival
# Method in brief: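 Ratio T/C, where T is the treated-group value and C the vehicle-dosed control value, from mice implanted with a transplantable tumor.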
# [1] = endpoint: mean survival time, dose: 100.0 mg/kg/injection, schedule: Q01DX009 (ip), vehicle: saline with Tween-80
# [2] = endpoint: mean survival time, dose: 100.0 mg/kg/injection, schedule: Q04DX003 (ip), vehicle: saline with Tween-80
# [3] = endpoint: mean survival time, dose: 200.0 mg/kg/injection, schedule: Q01DX009 (ip), vehicle: saline with Tween-80
# [4] = endpoint: mean survival time, dose: 400.0 mg/kg/injection, schedule: Q01DX009 (ip), vehicle: saline with Tween-80
# [5] = endpoint: mean survival time, dose: 400.0 mg/kg/injection, schedule: Q04DX003 (ip), vehicle: saline with Tween-80
# [6] = endpoint: mean survival time, dose: 100.0 mg/kg/injection, schedule: Q01DX001 (ip), vehicle: saline with Tween-80
# [7] = endpoint: mean survival time, dose: 100.0 mg/kg/injection, schedule: Q01DX009 (ip), vehicle: saline
# [8] = endpoint: mean survival time, dose: 200.0 mg/kg/injection, schedule: Q01DX009 (ip), vehicle: saline
# [9] = endpoint: mean survival time, dose: 400.0 mg/kg/injection, schedule: Q01DX009 (ip), vehicle: saline
# [10] = endpoint: mean survival time, dose: 100.0 mg/kg/injection, schedule: Q04DX002 (ip), vehicle: saline with Tween-80
# [11] = endpoint: mean survival time, dose: 200.0 mg/kg/injection, schedule: Q04DX002 (ip), vehicle: saline with Tween-80
# [12] = endpoint: mean survival time, dose: 50.0 mg/kg/injection, schedule: Q01DX009 (ip), vehicle: saline with Tween-80
# [13] = endpoint: mean survival time, dose: 200.0 mg/kg/injection, schedule: Q04DX003 (ip), vehicle: saline with Tween-80
smiles,measurement,setting,value
CC(=O)NO,T/C,"endpoint: median survival time, dose: 25.0 mg/kg/injection, schedule: Q03HX024 (ip), vehicle: water",104 % of control
same,T/C,"endpoint: median survival time, dose: 50.0 mg/kg/injection, schedule: Q01DX009 (ip), vehicle: water",101 % of control
same,T/C,"endpoint: median survival time, dose: 50.0 mg/kg/injection, schedule: Q03HX024 (ip), vehicle: water",105 % of control
same,T/C,"endpoint: median survival time, dose: 62.5 mg/kg/injection, schedule: Q01DX009 (ip), vehicle: saline",111 % of control
same,T/C,"endpoint: median survival time, dose: 62.5 mg/kg/injection, schedule: Q01DX009 (ip), vehicle: water",99 % of control
same,T/C,"endpoint: median survival time, dose: 100.0 mg/kg/injection, schedule: Q01DX009 (ip), vehicle: water",105 % of control
same,T/C,"endpoint: median survival time, dose: 100.0 mg/kg/injection, schedule: Q03HX024 (ip), vehicle: water",114 % of control
same,T/C,"endpoint: median survival time, dose: 125.0 mg/kg/injection, schedule: Q01DX009 (ip), vehicle: saline",111 % of control
same,T/C,"endpoint: median survival time, dose: 125.0 mg/kg/injection, schedule: Q01DX009 (ip), vehicle: water",101 % of control
same,T/C,"endpoint: median survival time, dose: 250.0 mg/kg/injection, schedule: Q01DX009 (ip), vehicle: saline",118 % of control
same,T/C,"endpoint: median survival time, dose: 250.0 mg/kg/injection, schedule: Q01DX009 (ip), vehicle: water",111 % of control
same,T/C,"endpoint: median survival time, dose: 400.0 mg/kg/injection, schedule: Q01DX009 (ip), vehicle: water",152 % of control
same,T/C,"endpoint: median survival time, dose: 400.0 mg/kg/injection, schedule: Q03HX024 (ip), vehicle: water",241 % of control
same,T/C,"endpoint: median survival time, dose: 500.0 mg/kg/injection, schedule: Q01DX009 (ip), vehicle: saline",152 % of control
same,T/C,"endpoint: median survival time, dose: 800.0 mg/kg/injection, schedule: Q01DX009 (ip), vehicle: water",173 % of control and 183 % of control
same,T/C,"endpoint: median survival time, dose: 1000.0 mg/kg/injection, schedule: Q01DX009 (ip), vehicle: saline",172 % of control
CCCCCCNC(=O)Nc1cccc(Cl)c1C,T/C,[1],94 % of control
same,T/C,[2],91 % of control
same,T/C,[3],94 % of control
same,T/C,[4],103 % of control
same,T/C,[5],92 % of control
CC1(C)CSC(=S)N1,T/C,"endpoint: mean survival time, dose: 2.5 mg/kg/injection, schedule: Q01DX009 (ip), vehicle: saline with Tween-80",98 % of control
same,T/C,"endpoint: mean survival time, dose: 5.0 mg/kg/injection, schedule: Q01DX009 (ip), vehicle: saline with Tween-80",95 % of control
same,T/C,"endpoint: mean survival time, dose: 5.0 mg/kg/injection, schedule: Q04DX003 (ip), vehicle: saline with Tween-80",103 % of control
same,T/C,"endpoint: mean survival time, dose: 10.0 mg/kg/injection, schedule: Q01DX009 (ip), vehicle: saline with Tween-80",107 % of control
same,T/C,"endpoint: mean survival time, dose: 10.0 mg/kg/injection, schedule: Q04DX003 (ip), vehicle: saline with Tween-80",92 % of control
COC1OC2COC(c3ccccc3)OC2/C(=N/O)C1[n+]1ccccc1 (configuration not stated),T/C,"endpoint: mean survival time, dose: 25.0 mg/kg/injection, schedule: Q01DX001 (ip), vehicle: saline with Tween-80",94 % of control
same,T/C,"endpoint: mean survival time, dose: 50.0 mg/kg/injection, schedule: Q01DX001 (ip), vehicle: saline with Tween-80",107 % of control
same,T/C,[6],98 % of control and 102 % of control
c1ccc(CCSc2ncnc3nc[nH]c23)cc1,T/C,"endpoint: mean survival time, dose: 100.0 mg/kg/injection, schedule: Q01DX007 (ip), vehicle: saline",103 % of control
same,T/C,[7],122 % of control
same,T/C,"endpoint: mean survival time, dose: 100.0 mg/kg/injection, schedule: Q03DX003 (ip), vehicle: saline",96 % of control
same,T/C,"endpoint: mean survival time, dose: 100.0 mg/kg/injection, schedule: Q04DX003 (ip), vehicle: saline",98 % of control
same,T/C,"endpoint: mean survival time, dose: 200.0 mg/kg/injection, schedule: Q01DX007 (ip), vehicle: saline",111 % of control
same,T/C,[8],113 % of control
same,T/C,"endpoint: mean survival time, dose: 200.0 mg/kg/injection, schedule: Q03DX003 (ip), vehicle: saline",102 % of control
same,T/C,"endpoint: mean survival time, dose: 200.0 mg/kg/injection, schedule: Q04DX003 (ip), vehicle: saline",103 % of control
same,T/C,"endpoint: mean survival time, dose: 400.0 mg/kg/injection, schedule: Q01DX007 (ip), vehicle: saline",120 % of control
same,T/C,[9],124 % of control
same,T/C,"endpoint: mean survival time, dose: 400.0 mg/kg/injection, schedule: Q03DX003 (ip), vehicle: saline",106 % of control
same,T/C,"endpoint: mean survival time, dose: 400.0 mg/kg/injection, schedule: Q04DX003 (ip), vehicle: saline",106 % of control
COc1ccc(OC)c(N=C2C(=O)Nc3ccc(Br)cc32)c1,T/C,[10],91 % of control
same,T/C,[11],91 % of control
O=S(=O)(CS(=O)(=O)Nc1ccccc1)Nc1ccccc1,T/C,[2],109 % of control
CCN(CC)CCN1Cc2ccccc2C1,T/C,"endpoint: mean survival time, dose: 25.0 mg/kg/injection, schedule: Q01DX009 (ip), vehicle: saline with Tween-80",102 % of control
same,T/C,[12],94 % of control
same,T/C,[1],96 % of control and 107 % of control
O=[N+]([O-])c1ccc2c(c1)CS(=O)(=O)O2,T/C,[1],109 % of control
same,T/C,[2],103 % of control
same,T/C,[3],107 % of control
same,T/C,[13],100 % of control
same,T/C,[4],107 % of control
same,T/C,[5],95 % of control
CCCCN=C1C(=O)Nc2ccccc21,T/C,"endpoint: mean survival time, dose: 75.0 mg/kg/injection, schedule: Q01DX001 (ip), vehicle: saline",98 % of control
same,T/C,"endpoint: mean survival time, dose: 150.0 mg/kg/injection, schedule: Q01DX001 (ip), vehicle: saline",97 % of control
same,T/C,"endpoint: mean survival time, dose: 300.0 mg/kg/injection, schedule: Q01DX001 (ip), vehicle: saline",95 % of control
CCOP(=O)(OCC)/C(C#N)=C\c1ccc(N(C)C)cc1,T/C,[2],101 % of control
same,T/C,[13],95 % of control
same,T/C,[5],98 % of control
CC1CC(C)(C)NC(C)(C(C)CC(C)(C)C)O1 (configuration not stated),T/C,"endpoint: mean survival time, dose: 50.0 mg/kg/injection, schedule: Q04DX002 (ip), vehicle: saline",108 % of control
same,T/C,[6],93 % of control
same,T/C,"endpoint: mean survival time, dose: 100.0 mg/kg/injection, schedule: Q04DX002 (ip), vehicle: saline",104 % of control
same,T/C,"endpoint: mean survival time, dose: 200.0 mg/kg/injection, schedule: Q01DX001 (ip), vehicle: saline with Tween-80",93 % of control
same,T/C,"endpoint: mean survival time, dose: 200.0 mg/kg/injection, schedule: Q04DX002 (ip), vehicle: saline",93 % of control
CN(C)N=Nc1cc(C(N)=O)cc(C(N)=O)c1,T/C,"endpoint: mean survival time, dose: 18.75 mg/kg/injection, schedule: Q01DX009 (ip), vehicle: Klucel (hydroxypropylcellulose) (HPC)",101 % of control
same,T/C,"endpoint: mean survival time, dose: 37.5 mg/kg/injection, schedule: Q01DX009 (ip), vehicle: Klucel (hydroxypropylcellulose) (HPC)",106 % of control
same,T/C,"endpoint: mean survival time, dose: 75.0 mg/kg/injection, schedule: Q01DX009 (ip), vehicle: Klucel (hydroxypropylcellulose) (HPC)",124 % of control
CCSC(C(O)C(O)C(O)C(O)CO)n1cnc2c(SC)ncnc21 (configuration not stated),T/C,"endpoint: mean survival time, dose: 25.0 mg/kg/injection, schedule: Q01DX005 (ip), vehicle: water",89 % of control
same,T/C,"endpoint: mean survival time, dose: 50.0 mg/kg/injection, schedule: Q01DX005 (ip), vehicle: water",94 % of control
same,T/C,"endpoint: mean survival time, dose: 100.0 mg/kg/injection, schedule: Q01DX005 (ip), vehicle: water",94 % of control
same,T/C,"endpoint: mean survival time, dose: 200.0 mg/kg/injection, schedule: Q01DX005 (ip), vehicle: water",94 % of control
COc1c2c(c(OC)c3c1C(=O)c1ccccc1C3=O)CC(O)CC2 (configuration not stated),T/C,"endpoint: mean survival time, dose: 12.5 mg/kg/injection, schedule: Q01DX009 (ip), vehicle: Klucel (hydroxypropylcellulose) (HPC)",92 % of control
same,T/C,"endpoint: mean survival time, dose: 25.0 mg/kg/injection, schedule: Q01DX009 (ip), vehicle: Klucel (hydroxypropylcellulose) (HPC)",94 % of control
same,T/C,"endpoint: mean survival time, dose: 50.0 mg/kg/injection, schedule: Q01DX009 (ip), vehicle: Klucel (hydroxypropylcellulose) (HPC)",92 % of control
same,T/C,"endpoint: mean survival time, dose: 100.0 mg/kg/injection, schedule: Q01DX009 (ip), vehicle: Klucel (hydroxypropylcellulose) (HPC)",88 % of control
same,T/C,"endpoint: mean survival time, dose: 200.0 mg/kg/injection, schedule: Q01DX009 (ip), vehicle: Klucel (hydroxypropylcellulose) (HPC)",90 % of control
CN(C)C(=S)Oc1c(S(=O)(=O)F)ccc(Cl)c1Cl,T/C,[10],91 % of control
same,T/C,[11],91 % of control
same,T/C,"endpoint: mean survival time, dose: 400.0 mg/kg/injection, schedule: Q04DX002 (ip), vehicle: saline with Tween-80",97 % of control
Cc1cc(Cl)ccc1NC(=O)Nc1ccccc1C(N)=O,T/C,[12],95 % of control
same,T/C,[1],95 % of control
same,T/C,[3],91 % of control
CCCCC(C#N)C(=O)OCC (configuration not stated),T/C,[2],96 % of control
same,T/C,[13],93 % of control
O=C(C[n+]1cc(Br)cc2ccccc21)c1ccc(O)c(O)c1,T/C,[7],110 % of control
same,T/C,[8],111 % of control
same,T/C,[9],102 % of control
